Experimental data from patent publication US10344071B2, “Identification of novel anti-fibrotic peptide in C-terminal region of the MET receptor tyrosine kinase” (MUSC Foundation for Research Development, priority 2015, dated 2019).

B1: FasL: inducer of apoptosis in AEC (protein, UniProt P48023 130-281, looked up)
Tumor necrosis factor ligand …: QIGHPSPPPEKKELRKVAHLTGKSNSRSMPLEWEDTYGIVLLSGVKYKKGGLVINETGLYFVYSKVYFRGQSCNNLPLSHKVYMRNSKYPQDLVMMEGKMMSYCTTGQMWARSSYLGAVFNLTSADHLYVNVSELSLVNFEESQTFFGLYKL

Legend:
Type in all cases: cell-based, human
[1] = tested on: caspase-3; experiment: Cisplatin-induced cleaved caspase-3, Western blot; conditions: for cleaved or active caspase-3 by Western blot: 50 μM for 24 h
Method: FIG. 5, comprising FIG. 5A and FIG. 5B, depicts effects of cisplatin in lung fibroblasts (LF) and alveolar epithelial cells (AEC) transfected with MET WT and MET D1398G. FIG. 5A depicts transfected cells were incubated with or without cisplatin for 24 hours. The cells were collected with lysis buffer and analyzed by Western blot with indicated antibodies. FIG. 5B depicts densitometric analysis of uncleaved MET detected by C12 antibody. Values are the mean and SD from three independent experiments.

[2] = tested on: alveolar epithelial cells (AEC, A549); experiment: Caspase 3 Assay, FasL- and cisplatin-induced apoptosis; conditions: for apoptosis, level of active caspase 3: AEC incubated 24 h with the inducer; for FasL-induced apoptosis (caspase 3 activity) / cisplatin-induced apoptosis (caspase 3 activity): AEC, 24 hours, peptide treatment, p<0.01
Method: FIG. 7 depicts alveolar epithelial cells (AEC) transfected with MET WT but not with MET D1398G are protected from FasL- and cisplatin-induced apoptosis. Transfected AEC were incubated with or without FasL or cisplatin for 24 hours, collected with lysis buffer and analyzed by Caspase 3 Assay as detailed in Materials and Methods.
(§1) FIG. 17A depicts 1403 and 1404 peptides inhibit collagen in TGFβ-stimulated LF. Cells were incubated with and without TGFβ (5 ng/ml), 1403, and 1404 peptides (1 μg/ml) or scrambled peptide (Control, Co) for 24 h and analyzed by immunoblotting using anti-collagen type I antibody. FIG. 17B depicts 1403 and 1404 but not M10 protect AEC from FasL- and cisplatin-induced apoptosis. AEC were incubated with or without 1403, 1404, or scrambled (Control) peptides, FasL, and cisplatin for 24 hours and analyzed by Caspase 3 Assay from Abcam.
Caspase 3 Assay Kit (Abcam, Cambridge, Mass.) was used to detect apoptosis in cultured cells. The cells were plated on 100 mm plates, transfected with MET WT or D1398G, and treated with or without FasL and cisplatin for 24 h. Cell lysates were collected in accordance to with the manufacturer's instructions, transferred to a 96-well plate, and incubated with DEVD-p-NA substrate at 37° C. for 2 hours followed by reading the absorbance at 405 nm on a spectrophotometer.
A cell-protective effect of HGF and MET have been reported in AEC in numerous studies (Crestani, et al., Proc Am Thorac Soc, 2012, 9(3):158-63 and Gazdhar, et al., Hum Gene Ther, 2013, 24(1):105-16). To investigate if the D1398G mutation interferes with anti-apoptotic effects of MET in AEC, apoptosis of AEC with FasL and cisplatin and measured caspase 3 activity in cell lysates was induced. […] In contrast, AEC transfected with the MET D1398G mutant were not protected from FasL- and cisplatin-induced apoptosis.
To investigate if the 1403 and 1404 peptides have anti-apoptotic effects in AEC, apoptosis of AEC was induced with FasL and cisplatin and measured caspase 3 activity in cell lysates. […] In contrast, AEC treated with scrambled peptide were not protected from FasL- and cisplatin-induced apoptosis (FIG. 17B).

[3] = tested on: fetal lung fibroblasts (MRC5 immortal cell line); experiment: TGFβ-induced collagen type I, immunoblot; conditions: peptide 1 μg/ml, TGFβ 5 ng/ml, 24 h
Method: FIG. 11, comprising FIG. 11A and FIG. 11B, depicts the effect of M10 on TGFβ-induced collagen type 1. FIG. 11A depicts MRC5 cells, normal lung fibroblasts, and normal skin fibroblasts were incubated with or without M10, scrambled peptide (Scr), and TGFβ for 48 hours in serum-free medium. Cell extracts were immunoblotted with anticollagen type I and anti-β-actin antibodies. FIG. 11B depicts densitometric analysis of collagen type I immunoblots from 2 independent experiments.
as §1, with “FIG. 17B depicts 1403 and 1404 but not M10 protect AEC from FasL- and cisplatin-induced apoptosis.” left out
Cells were collected and analyzed by immunoblotting as previously described (Bogatkevich et al., J Biol Chem. 2001, 276:45184-45192; Bogatkevich et al., Arthritis Rheum. 2007, 56:3468-3477). The phosphorylation of Smad2 was analyzed by Western blot using anti-phospho-Smad2 antibody in accordance with the manufacturer's instructions (Cell Signaling Technology). […] Total amount of Smad2 was evaluated by re-blotting with anti-Smad2 polyclonal antibody. […]

| Molecule | cleaved caspase by Western blot ([1]; AEC and LF, 100 μM) | cleaved or active caspase-3 by Western blot ([1]; AEC) | cleaved or active caspase-3 by Western blot ([1]; LF) | apoptosis, level of active caspase 3 [2] | FasL-induced apoptosis (caspase 3 activity) [2] | cisplatin-induced apoptosis (caspase 3 activity) [2] | levels of TGFβ-induced collagen [3] |
| --- | --- | --- | --- | --- | --- | --- | --- |
| N.N.[Cl][Pt][Cl] [cisplatin] | yielded cleaved caspase not only in AEC but also in LF | detectable | not in LF | resulted in apoptosis reflected by an increase in the level of active caspase 3 | – | – | – |
| DDEVDTRPAS (1403 Peptide) [compound 1403, M5 peptide with added caspase-3 cleavage sites and an additional N-terminal aspartic acid] | – | – | – | – | significantly reduced apoptosis | significantly reduced apoptosis | significantly reduced |
| DEVDTRPAS (1404 Peptide) [compound 1404, M5 peptide with added caspase-3 cleavage sites] | – | – | – | – | significantly reduced apoptosis | significantly reduced apoptosis | significantly reduced |
| B1 | – | – | – | resulted in apoptosis reflected by an increase in the level of active caspase 3 | – | – | – |
